In EP2401611B1, “IMPROVED METHODS FOR IDENTIFICATION” (Cambridge Enterprise Limited, priority 2009, dated 2010):

System: TNF-alpha
Assay: Sub-lethal endotoxemia model (LPS challenge, serum TNF-alpha)
Type: in vivo, mouse
Conditions: very high / highest doses
Protocol: We selected the sub-lethal endotoxemia model in mouse, because this has been well characterised in our laboratory (see for example Fox et al. (2002) J. Med. Chem. 45:360-70; Fox et al. (2005) J. Med. Chem. 48:867-74). The extent of systemic inflammation in response to a single intraperitoneal injection of bacterial lipopolysaccharide (LPS) can be estimated by measuring serum TNF-alpha 2 hours post challenge.
Methods: Mice (CD1 strain; adult males; 6 per group) were treated with BSCI (in an appropriate vehicle) or with vehicle alone by an appropriate route. […] Simultaneously, one set of mice at each BSCI concentration received BIM 23627 at 4mg/animal (120mg/kg) by sub-cutaneous injection (a treatment condition known to suppress classical sstr2-mediated signalling, such as GH release, in rats; Tulipano et al. (2002) 143:1218-24). Between 30mins and 1hour after dosing (a period when a maximal plasma concentration of BSCI has been achieved), the inflammatory challenge was elicited by intraperitoneal injection of 750µg of LPS (Sigma; L4130 lot#024K4077; 900,000 EU/mg).
After a further 2 hours, the animals were sacrificed by CO2 asphyxiation, and blood was drawn by cardiac puncture. Serum was prepared by conventional methods, and the level of TNF-alpha in serum was measured using an ELISA (R&D Systems; Murine Quantikine code# MTA00) performed in accordance with the manufacturer's instructions.

C[C@@H]1C[C@H]2[C@@H]3CCC4=CC(=O)C=C[C@]4(C)[C@@]3(F)[C@@H](O)C[C@]2(C)[C@@]1(O)C(=O)CO [dexamethasone]
inhibition of TNF-alpha: more than 90%
